Measurements from patent US11306089B2, “Gamma-carboline compounds for the detection of Tau aggregates” (AC IMMUNE SA, priority 2018, dated 2022).
pIC50: −log10 of the molar value. Marks after values point to notes of the source that are not given here.

Legend:
[1] = biological target: T1, MAO-A (Homo sapiens, UniProt P21397); assay: Binding affinity to MAO-A in human HC brain homogenate (3H-Harmine competition); set-up: key to Low affinity to MAO A (IC50 in human HC brain homogenate), grade: − poor; ∘ moderate; + good; ++ very good; +++ excellent; details: for pIC50: human control brain homogenate, 3H-Harmine competition
T1 construct: human brain homogenate (without AD pathology, HC); from tissue; host or cells: human brain homogenate without AD pathology (HC)
T1 sequence (P21397 1-527): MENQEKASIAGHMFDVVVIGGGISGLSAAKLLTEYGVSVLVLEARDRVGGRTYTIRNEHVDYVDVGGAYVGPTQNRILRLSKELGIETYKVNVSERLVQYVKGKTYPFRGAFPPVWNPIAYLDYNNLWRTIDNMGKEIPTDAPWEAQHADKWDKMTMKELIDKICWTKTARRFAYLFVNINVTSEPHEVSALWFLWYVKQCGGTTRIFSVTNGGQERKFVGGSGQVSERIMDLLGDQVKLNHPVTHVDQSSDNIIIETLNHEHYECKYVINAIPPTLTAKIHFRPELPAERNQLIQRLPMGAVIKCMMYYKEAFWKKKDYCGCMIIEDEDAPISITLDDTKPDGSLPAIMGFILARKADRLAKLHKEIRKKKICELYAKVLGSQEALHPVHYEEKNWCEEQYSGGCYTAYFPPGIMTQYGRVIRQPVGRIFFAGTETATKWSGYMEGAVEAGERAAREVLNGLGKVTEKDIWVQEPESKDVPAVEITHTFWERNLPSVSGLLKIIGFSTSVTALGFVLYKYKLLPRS
Method: (§1) Determination of the Binding Affinity to MAO-A in HC Brain Homogenate
(§2) 20 μg of mouse whole brain or human brain homogenate (without AD pathology, HC) was incubated with a dilution series of each test compound (1000 to 0.06 nM) in the presence of 700 Bq of ^3H-labeled MAO-A binder Harmine. The samples were shaken at 110 rpm for 60 min at 37° C. Samples were then filtered through GF/B 96 well filter plates and washed twice with 200 μL assay buffer (PBS containing 0.1% BSA and 2% DMSO). Thereafter, 40 μL Szintillation cocktail was added and the filter plates were sealed. The counts were then counted using a TopCount (Perkin Elmer). Non-specific signal was determined with samples containing ^3H-Harmine in the presence of assay buffer without brain substrate and competitor. Specific binding was calculated by subtracting the non-specific signal from the measured samples signal. The unblocked ^3H-Harmine signal was defined as total binding. IC50 values were calculated by Prism V7 (GraphPad) setting total binding to 100%.

[2] = biological target: amyloid-beta in human Alzheimer disease brain homogenate (Homo sapiens, UniProt P05067); assay: Binding affinity to amyloid-beta in AD brain homogenate (3H-PIB competition); set-up: key to Low affinity to amyloid-beta (IC50 in AD brain homogenate), grade: − poor; ∘ moderate; + good; ++ very good; +++ excellent; details: non-radioactive fluorine-19 derivatives; for pIC50: human AD brain homogenate
Method: Determination of the Binding Affinity to Amyloid-Beta in AD Brain Homogenate 20 μg of human Alzheimer disease brain homogenate was incubated with a dilution series of each test compound (1000 to 0.06 nM) in the presence of 700 Bq of ^3H-labeled beta-amyloid binder PIB. The samples were shaken at 110 rpm for 60 min at 37° C. Samples were then filtered through GF/B 96 well filter plates and washed twice with 200 μL assay buffer (PBS containing 0.1% BSA and 2% DMSO). Thereafter, 40 μL Szintillation cocktail was added and the filter plates were sealed. The counts were then counted using a TopCount (Perkin Elmer). Non-specific signal was determined with samples containing ^3H-labeled beta-amyloid binder in the presence of assay buffer without brain substrate and competitor. Specific binding was calculated by subtracting the non-specific signal from the measured samples signal. The unblocked ^3H-labeled beta-amyloid binder signal was defined as total binding. IC50 values were calculated by Prism V7 (GraphPad) setting total binding to 100%.

[3] = biological target: T2, MAO-B (Homo sapiens, UniProt P27338); assay: Binding affinity to MAO-B in human HC brain homogenate (3H-deprenyl competition); set-up: key to Low affinity to MAO B (IC50 in human HC brain homogenate), grade: − poor; ∘ moderate; + good; ++ very good; +++ excellent; details: for pIC50: 3H-deprenyl competition
T2 construct: 20 μg of human brain homogenate (without AD pathology); from tissue; host or cells: human brain homogenate without AD pathology
T2 sequence (P27338 1-520): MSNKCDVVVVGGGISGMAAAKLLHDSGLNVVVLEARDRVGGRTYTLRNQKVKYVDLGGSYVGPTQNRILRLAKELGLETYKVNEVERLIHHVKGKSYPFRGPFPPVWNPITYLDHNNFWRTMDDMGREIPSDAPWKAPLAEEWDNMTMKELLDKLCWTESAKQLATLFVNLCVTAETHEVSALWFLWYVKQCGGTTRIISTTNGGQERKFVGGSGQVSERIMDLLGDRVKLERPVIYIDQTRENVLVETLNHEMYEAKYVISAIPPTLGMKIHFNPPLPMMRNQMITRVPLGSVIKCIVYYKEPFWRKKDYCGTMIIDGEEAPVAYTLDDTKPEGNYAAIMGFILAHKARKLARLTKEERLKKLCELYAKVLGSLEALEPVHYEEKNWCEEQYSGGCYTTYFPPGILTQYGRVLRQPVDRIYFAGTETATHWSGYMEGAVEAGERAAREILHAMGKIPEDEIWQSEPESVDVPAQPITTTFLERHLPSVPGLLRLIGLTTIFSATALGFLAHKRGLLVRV
Method: Determination of the Binding Affinity to MAO-B in HC Brain Homogenate
as §2, with “of” for “of mouse whole brain or”, “pathology)” for “pathology, HC)”, “MAO-B” for “MAO-A”, “Deprenyl.” for “Harmine.”, “^3H-deprenyl” for “^3H-Harmine”

[4] = Tracer signal in HC brain homogenate compared to AD brain homogenate; assay type: binding, human; set-up: key to Signal to noise (% signal intensity in HC brain homogenate compared to tracer signal in AD brain homogenate), grade: − poor; ∘ moderate; + good; ++ very good; +++ excellent
[5] = Tracer signal in mouse brain homogenate compared to AD brain homogenate; assay type: binding; set-up: key to High signal to noise (% signal intensity in mouse brain homogenate compared to tracer signal in AD brain homogenate), grade: − poor; ∘ moderate; + good; ++ very good; +++ excellent; details: radioactive fluorine-18 derivatives
[6] = biological target: Tau in human Alzheimer disease brain homogenate (Homo sapiens, UniProt P10636); assay: Competition binding to Tau in AD brain homogenate (18F-labeled Tau binder); set-up: key to High affinity to Tau (IC50 in AD brain homogenate), grade: − poor; ∘ moderate; + good; ++ very good; +++ excellent; details: for High affinity to Tau (IC50 in AD brain homogenate), grade / pIC50: non-radioactive fluorine-19 derivatives
Method: Determination of Binding in AD and Healthy Control Brain Homogenates
20 μg of human Alzheimer disease brain homogenate was incubated with a dilution series of each test compound (1000 to 0.06 nM) in the presence of 800 Bq of ^18F-labeled Tau binder. The samples were shaken at 110 rpm for 45 min at 37° C. Samples were then filtered through GF/B 96 well filter plates and washed twice with 300 μL assay buffer (PBS containing 0.1% BSA and 2% DMSO). Thereafter, filter plates were sealed and a Fuji Film Imaging Plate (BAS-SR2025) was placed on top. The imaging plate was analyzed after overnight exposition using a Fuji Film BAS-5000. Non-specific signal was determined with samples containing ^18F-labeled Tau-reference binder in the presence of assay buffer without brain substrate and competitor. Specific binding was calculated by subtracting the non-specific signal from the measured samples signal. The unblocked ^18F-labeled Tau-binder signal was defined as total binding. IC50 values were calculated by Prism V7 (GraphPad) setting total binding to 100%.

[7] = biological target: T3, aggregated recombinant human K18 fibrils (Homo sapiens, UniProt P10636); assay: Binding affinity to K18 Tau aggregates (3H-labeled Tau binder competition); set-up: key to High affinity to Tau (IC50 using K18 Tau aggregates), grade: − poor; ∘ moderate; + good; ++ very good; +++ excellent; details: non-radioactive fluorine-19 derivatives; for pIC50: read-out: IC50 using K18 Tau aggregates
T3 construct: aggregated recombinant human K18 fibrils
Method: Determination of the Binding Affinity to K18 Tau Aggregates
200 ng of aggregated recombinant human K18 fibrils were incubated with a dilution series of each test compound (1000 to 0.06 nM) in the presence of 3 nM of ^3H-labeled Tau binder. The samples were shaken at 110 rpm for 60 min at 37° C. Samples were then filtered through GF/B 96 well filter plates and washed twice with 200 μL assay buffer (PBS containing 0.1% BSA and 2% DMSO). Thereafter, 40 μL of MicroScint 40 was added to each well of the filter plate. Filter plates were sealed and then placed shaking at 110 rpm at 37° C. for 15 min. Measurement was done by TopCount NXT HTS (PerkinElmer). Non-specific signal was determined with samples containing ^3H-labeled Tau binder in the presence of 2.5 μM unlabeled Tau-reference binder and K18 fibrils. Specific binding was calculated by subtracting the non-specific signal from the measured samples signal. The unblocked ^3H-labeled Tau-binder signal was defined as total binding. IC50 values were calculated by Prism V7 (GraphPad) setting total binding to 100%.

[8] = biological target: T4, MAO-A (Mus musculus, UniProt Q64133); assay: Binding affinity to MAO-A in mouse whole brain homogenate (3H-Harmine competition); set-up: key to Low affinity to MAO A (IC50 in mouse brain homogenate), grade: − poor; ∘ moderate; + good; ++ very good; +++ excellent; details: for fold higher IC50 than compound 18F-1, MAO A in whole mouse brain homogenate: ratio to 18F-1
T4 construct: 20 μg of mouse whole brain or human brain homogenate; from tissue; host or cells: mouse whole brain homogenate
T4 sequence (Q64133 1-526): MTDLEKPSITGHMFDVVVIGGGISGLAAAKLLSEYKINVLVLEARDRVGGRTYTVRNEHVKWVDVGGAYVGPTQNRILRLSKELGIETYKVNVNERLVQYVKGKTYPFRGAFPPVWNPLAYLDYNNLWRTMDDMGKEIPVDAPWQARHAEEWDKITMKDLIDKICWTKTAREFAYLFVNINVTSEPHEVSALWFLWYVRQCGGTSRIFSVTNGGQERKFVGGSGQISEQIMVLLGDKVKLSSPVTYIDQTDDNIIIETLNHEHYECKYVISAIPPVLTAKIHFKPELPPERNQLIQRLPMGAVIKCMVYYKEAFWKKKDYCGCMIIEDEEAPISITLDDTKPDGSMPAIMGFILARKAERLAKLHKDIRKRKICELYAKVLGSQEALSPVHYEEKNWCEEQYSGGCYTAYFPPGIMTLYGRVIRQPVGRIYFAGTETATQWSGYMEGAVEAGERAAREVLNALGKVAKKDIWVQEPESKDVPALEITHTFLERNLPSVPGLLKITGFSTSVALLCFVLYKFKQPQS
Method: as §1, §2

[9] = radioactive fluorine-18 derivatives
[10] = mouse brain homogenate, 3H-Harmine competition

Sequence of amyloid-beta in human Alzheimer disease brain homogenate (P05067 672-711 limits assumed): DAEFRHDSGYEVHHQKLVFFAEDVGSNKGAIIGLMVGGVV
T3 sequence (P10636 561-685 limits assumed): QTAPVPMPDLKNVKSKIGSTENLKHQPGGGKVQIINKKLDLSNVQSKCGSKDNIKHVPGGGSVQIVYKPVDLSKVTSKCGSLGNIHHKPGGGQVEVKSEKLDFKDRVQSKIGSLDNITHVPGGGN
Sequence of Tau in human Alzheimer disease brain homogenate (P10636 623-708 limits assumed): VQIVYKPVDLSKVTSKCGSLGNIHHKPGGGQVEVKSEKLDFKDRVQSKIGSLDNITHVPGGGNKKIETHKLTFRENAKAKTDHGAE

| pIC50 [1] | pIC50 [2] | pIC50 ([3]; human HC brain homogenate) | High affinity to Tau (IC50 in AD brain homogenate), grade [6] | pIC50 ([6]; human AD brain homogenate) | pIC50 [7] | Low affinity to MAO A (IC50 in mouse brain homogenate), grade ([8]; mouse brain homogenate) | pIC50 [8, 10] | fold higher IC50 than compound 18F-1, MAO A in whole mouse brain homogenate [8] | SMILES | further results |
| --- | --- | --- | --- | --- | --- | --- | --- | --- | --- | --- |
| 7.43 | < 6.00 | 6.11 | +++ | > 8.70 | 8.52 | ∘ | 7.29 | 11 fold | [18F]c1cc(-c2ccc3c(c2)[nH]c2ccncc23)ccn1 [^18F-2] | Low affinity to MAO A (IC50 in human HC brain homogenate), grade ([1]; human HC brain homogenate): ∘; fold higher IC50 than compound 18F-1, MAO A in human control brain homogenate ([1]; ratio to 18F-1): 6.3 fold; Low affinity to amyloid-beta (IC50 in AD brain homogenate), grade ([2]; AD brain homogenate): +++^a); Low affinity to MAO B (IC50 in human HC brain homogenate), grade ([3]; human HC brain homogenate): ++; fold higher IC50 than compound 18F-1, MAO B in HC brain homogenate ([3]; ratio to 18F-1): > 10 fold; less relative signal in HC brain homogenate ratio than 18F-1 ([4]; binding in AD brain homogenate and HC brain homogenate, difference to 18F-1): 19%; % signal intensity in HC brain homogenate compared to tracer signal in AD brain homogenate [4, 9]: (66%); Signal to noise (% signal intensity in HC brain homogenate compared to tracer signal in AD brain homogenate), grade [4, 9]: ∘; % signal intensity in mouse brain homogenate compared to tracer signal in AD brain homogenate [5]: (57%); High signal to noise (% signal intensity in mouse brain homogenate compared to tracer signal in AD brain homogenate), grade [5]: +; High affinity to Tau (IC50 using K18 Tau aggregates), grade ([7]; K18 Tau aggregates): ++ |
| – | – | – | + | 7.87 | – | +++ | < 6.00 | > 100 fold | [18F]c1cc(-c2cc3[nH]c4ccncc4c3s2)ccn1 [^18F-3] | – |
| 8.23 | < 6.00 | 7.11 | – | > 8.70 | – | – | 8.34 | – | Fc1ccc(-c2ccc3c(c2)[nH]c2ccncc23)cn1 [F-1, reference compound] | – |

Continued, compound first:

| SMILES | pIC50 [1] | pIC50 [2] | pIC50 ([3]; human HC brain homogenate) | High affinity to Tau (IC50 in AD brain homogenate), grade [6] | pIC50 ([6]; human AD brain homogenate) | pIC50 [7] | Low affinity to MAO A (IC50 in mouse brain homogenate), grade ([8]; mouse brain homogenate) | pIC50 [8, 10] | fold higher IC50 than compound 18F-1, MAO A in whole mouse brain homogenate [8] | further results |
| --- | --- | --- | --- | --- | --- | --- | --- | --- | --- | --- |
| [18F]c1ccc(-c2ccc3c(c2)[nH]c2ccncc23)cn1 [^18F-1, reference compound] | 8.23 | < 6.00 | 7.11 | – | > 8.70 | 7.71 | – | 8.34 | – | – |
| Fc1cc(-c2nc3[nH]c4ccncc4c3s2)ccn1 [F-3] | – | – | – | – | – | – | – | – | – | affinity towards tau (in words) ([6]; competition assay, human AD brain homogenate): good affinity; MAO-A binding affinity (in words) [8, 10]: Low affinity |
| Fc1cc(-c2ccc3c(c2)[nH]c2ccncc23)ccn1 [F-2] | 7.43 | < 6.00 | 6.11 | – | > 8.70 | – | – | 7.29 | – | – |
